Reference: article PMC5971061, “Differential Effects of Linkers on the Activity of Amphiphilic Tobramycin Antifungals” (Molecules : A Journal of Synthetic Chemistry and Natural …, 2018)
≈ marks a conversion by molar mass, not a printed value.

Legend:
[1] = tested on: Cryptococcus neoformans MYA-895; design: method as in PMID 26033722; details: previously observed; cited from earlier work
[2] = tested on: C. parapsilosis ATCC 22019 (strain J); experiment: Time-kill assay, strain J; format: cell-based, Candida parapsilosis
Experimental: (§1) Time-kill assays were used to assess the inhibitory efficiency of 7b against three yeast strains, C. albicans ATCC 10231 (strain A), C. parapsilosis ATCC 22019 (strain J), and C. neoformans clinical isolate CN1. The protocol for time-kill assays followed methods previously described with minor modifications. Yeast cultures were grown overnight in YPD broth at 35 °C with shaking (200 rpm). A working stock of fungal cells was made by diluting cultures in RPMI 1640 medium to an OD600 of 0.125, approximately 1 × 10^6 CFU/mL. From the working stock, 100 μL of cells was added to 4.9 mL of RPMI 1640 medium in sterile culture tubes, making the starting fungal cell concentration […]. Compounds were then added to the fungal cells. The treatment conditions included sterile control, growth control, TOB (parent; negative control), voriconazole (VOR) at 1× MIC (positive control), 7b at 1× and 4× MIC. The treated fungal cultures were incubated at 35 °C with shaking (200 rpm) for 24 h. The samples were taken from the different treatments at regular time points (0, 3, 6, 9, 12, and 24 h.) and plated in duplicates. For each time point, cultures were vortexed, 100 μL of culture was aspirated, and 10-fold serial dilutions were made in sterile ddH2O. From the appropriate dilutions, 100 μL of fungal suspension was spread on PDA plates and incubated at 35 °C for 48 h before the colony counts were determined. At 24 h, 50 μL of 1 mM resazurin was added to the treatments and incubated at 35 °C with rotation for 2 h in the dark for visual inspection. Experiments were performed in duplicate.

[3] = tested on: C. albicans ATCC 10231 (strain A); experiment: Time-kill assay, strain A; format: cell-based, Candida albicans
Experimental: as §1

[4] = tested on: C. neoformans (strain CN1); experiment: Time-kill assay, CN1; format: cell-based, Cryptococcus neoformans
Experimental: as §1

[5] = tested on: C. albicans ATCC 10231 (strain A); experiment: Membrane permeabilization assay using propidium iodide staining; format: cell-based, Candida albicans; details: 7b at 2× MIC or 4× MIC; TOB 31.3 μg/mL; 2 h treatment; compared to untreated cells
Experimental: A fresh culture of C. albicans ATCC 10231 (strain A) was prepared in 5 mL of YPD broth in a Falcon tube and was grown overnight at 35 °C at 200 rpm. […] TOB (31.3 μg/mL) was used as a negative control. The cell suspensions were then treated for 2 h at 35 °C with continuous agitation (200 rpm). To prepare a positive control sample, C. albicans ATCC 10231 (strain A) cells were killed by heat shock at 95 °C for 5 min as described by Ocampo and Barrientos. The cells were then centrifuged and resuspended in 500 μL of PBS buffer (pH 7.2 adjusted at room temperature). Subsequently, the cells were treated with propidium iodide (9 μM, final concentration) and incubated for 20 min at room temperature in the dark. […] The data were obtained from at least two independent experiments. The images were also post-processed, utilizing automatic contrast and brightness setting in Microsoft PowerPoint 2013 to eliminate background noise.

[6] = tested on: C. neoformans clinical isolates CN1-3; experiment: MIC across C. neoformans clinical isolates CN1-3; format: cell-based, Cryptococcus neoformans; details: Cryptococcus neoformans
Experimental: The final concentrations of compounds 3, 4, 7a, 7b, 9, and 16, as well as that of TOB tested in this study ranged from 0.24–62.5 μg/mL. CAS was used as a positive control and the final concentrations tested for CAS ranged from 0.03–31.3 μg/mL. Briefly, overnight yeast cultures were grown in yeast peptone dextrose (YPD) broth and the cell density was adjusted to an OD600 of 0.12 (~1 × 10^6 CFU/mL) by using a spectrophotometer. Yeast cell suspensions were further diluted to achieve 1–5 × 10^3 CFU/mL in RPMI 1640 medium, and 100 μL of these yeast cells was added to 96-well microtiter plates containing RPMI 1640 medium and titrated compounds. Each test was performed in triplicate. The plates were incubated at 35 °C for 48 h.

Row | MIC [6] | Compound | MIC value [1] | decrease in CFU ([2]; 1.95 μg/mL (1× MIC), after 24 h of treatment) | effect on growth (time-kill, in words) ([2]; 7.8 μg/mL (4× MIC), after 24 h) | effect on growth (time-kill, in words) ([2]; 7b at 1.95 μg/mL (1× MIC)) | reduction of CFU ([3]; 15.6 μg/mL (4× MIC), after 6 h of treatment) | reduction of CFU ([3]; 1× MIC (7b 3.9 μg/mL; VOR 1.0 μg/mL), after 9 h of treatment) | time to complete fungal cell death ([4]; 0.49 μg/mL (1× MIC)) | reduction of CFU ([4]; 0.49 μg/mL (1× MIC), after 3 h of treatment) | time to complete fungal cell death ([4]; 1.95 μg/mL (4× MIC)) | propidium iodide (PI) dye uptake (in words) [5] | effect on growth (time-kill, in words) ([2]; TOB 15.6 μg/mL, 24-h period) | effect on growth (time-kill, in words) ([3]; 24-h period, TOB 15.6 μg/mL, VOR 1× MIC 1.0 μg/mL) | effect on growth (time-kill, in words) ([4]; controls TOB 15.6 μg/mL and VOR 1× MIC, 24-h period)
1 |  | CCCCCCCCCCCCSC[C@H]1O[C@H](O[C@@H]2[C@@H](O)[C@H](O[C@H]3O[C@H](CN)[C@@H](O)C[C@H]3N)[C@@H](N)C[C@H]2N)[C@H](O)[C@@H](N)[C@@H]1O [Compound 3, O-3-Amino-3-deoxy-6-S-dodecyl-6-thio-α-D-glucopyranosyl-(1→6)-O-[2,6-diamino-2,3,6-trideoxy-α-D-ribo-hexopyranosyl-(1→4)]-2-deoxy-D-streptamine] | 1.95 µg/mL (≈ 2.99 µM) |  |  |  |  |  |  |  |  |  |  |  | 
2 |  | CCCCCCCCCCCCc1cn(C[C@H]2O[C@H](O[C@@H]3[C@@H](O)[C@H](O[C@H]4O[C@H](CN)[C@@H](O)C[C@H]4N)[C@@H](N)C[C@H]3N)[C@H](O)[C@@H](N)[C@@H]2O)nn1 [Compound 7b, O-3-Amino-3,6-dideoxy-6-(4-dodecyl-1H-1,2,3-triazol-1-yl)-α-D-glucopyranosyl-(1→6)-O-[2,6-diamino-2,3,6-trideoxy-α-D-ribo-hexopyranosyl-(1→4)]-2-deoxy-D-streptamine] |  | ≥ 2 log10 | completely killed | fungistatic effect at 1.95 μg/mL (1× MIC) only for the first 3 h | ≥ 2 log10 | ≥ 2 log10 | 6 h | ≥ 2 log10 | 3 h | larger influx of PI dye |  |  | 
3 | > 62.5 µg/mL | NC[C@H]1O[C@H](O[C@H]2[C@H](O)[C@@H](O[C@H]3O[C@H](CO)[C@@H](O)[C@H](N)[C@H]3O)[C@H](N)C[C@@H]2N)[C@H](N)C[C@@H]1O [TOB, tobramycin] |  |  |  |  |  |  |  |  |  | negligible staining | did not affect the growth | did not affect the growth | little to no growth inhibitory effect
